Experimental data published in US20150374646A1, “TREATMENT OF CANCER AND OTHER CONDITIONS USING A TRANSCRIPTION FACTOR MODULATOR” (C & C BIOPHARMA, LLC, priority 2013, published 2015).

Tests used:
SEM cells = experiment: Leukemia cell growth inhibition, CellTiter-Glo (Example 1); type: cell-based; conditions: Homo sapiens, ALL (B-cell), 72 hours
Experimental: (§2) Various human leukemia cells were grown to the logarithmic growth phase and seeded into 24-well plates. […] Treated cells were further incubated for 72 hours and then were examined for cell proliferation. Cell proliferation was determined using the CellTiter-Glo Luminescence Cell Viability assay (Promega Corporation, Madison, Wis.) according to the manufacturer's protocol. The calculated inhibition rate was determined with the following formula: Inhibition rate (%)=(1−Luminescence of experimental group/Luminescence of control group)×100. IC50 is the calculated concentration of a compound needed to inhibit half of the maximum cell growth (equivalent to cell growth in control group) based on the corresponding dose-response curve under the described experimental conditions.

K562R = experiment: as above; type: cell-based; conditions: Homo sapiens, K-562R, CML (Gleevec resistant), 72 hours
Experimental: as §2

Nalm-6 = experiment: cells; conditions: Homo sapiens, NALM-6, 72 h, read-out: 72 hr growth inhibition (%)
Experimental: as §2
Growth inhibition experiments were performed as previously described.

MV4-11 = experiment: Leukemia cell growth inhibition, CellTiter-Glo (Example 1); type: cell-based; conditions: Homo sapiens; MV4-11, B-myelomonocytic (Biphenotypic B-cell leukemia); 72 hours
Experimental: as §2

K562 cells = experiment: Subcutaneous K562 (CML) tumor growth in SCID mice (Example 6); type: in vivo; conditions: for Average body weight, End point / Average body weight, Initial / Tumor size / Tumor weight: x ± s; for Average body weight, Initial: initial (before treatment)
Experimental: Male Severe Combined Immunodeficiency (SCID) mice that were 4-6 weeks old were used in the experiment. The mice were fed under specific pathogen free (SPF) conditions. Food and water were available to the mice at will. A suspension of 8×10^6 chronic myelogenous leukemia K562 cells (0.2 mL) was inoculated subcutaneously into the right back of the SCID mice.
The general conditions of the mice and the growth of the transplanted tumor were monitored. […] The control group received an intraperitoneal injection (IP) of 0.2 mL solvent (20% DMSO, 80% of 20% w/v (2-hydroxypropyl)-β-cyclodextrin made in PBS). […] The YT30 treated groups received either intraperitoneal injection of 50 mg/kg/day of YT30 (0.2 mL in volume) suspended in solvent (20% DMSO, 80% of 20% w/v (2-hydroxypropyl)-β-cyclodextrin made in PBS) or oral gavage of 90 mg/kg/day YT30 in solvent (Cremophor RH40:TW80:PEG400 (2:1:1)). Frequency of the administration was once per day and the experiment lasted 16 days after initiation of the treatment.
The body weights of the mice were recorded prior to the start of treatment and twice every week thereafter. Each mouse of every group was monitored daily for any other symptoms of side effects including change in behavior, activity or posture, areas of redness and swelling, and food and water withdrawal. Caliper measurements of the longest perpendicular tumor diameters were performed every 2 days to estimate the tumor volume; the following formula: 4π/3×(width/2)^2×(length/2) was used to calculate the three-dimensional volume of an ellipse. The tumor inhibition rate was calculated according to tumor volume: Tumor inhibition rate by size (%)=(Tumor volume of the control group−Tumor volume of the treated group)/Tumor volume of the control group×100. The SCID mice were euthanized 2 hours after the final injection and the subcutaneous tumor nodules were taken out intact and weighed. The tumor inhibition rate was calculated again according to tumor weight: Tumor inhibition rate by weight (%)=(Tumor weight of the control group−Tumor weight of the treated group)/Tumor weight of the control group×100.

U266 = experiment: Leukemia cell growth inhibition, CellTiter-Glo (Example 1); type: cell-based; conditions: Homo sapiens, U-266; U266, Multiple myeloma; 72 hours
Experimental: as §2

BaF3 BCR-ABL T315I = experiment: as above; type: cell-based; conditions: Mouse cell line with BCR-ABL with T315I point mutation (Gleevec resistant), 72 hours
Experimental: as §2

RPMI-8226 = experiment: as above; type: cell-based; conditions: Homo sapiens; RPMI-8226, Multiple myeloma; 72 hours
Experimental: as §2

Jurkat = experiment: as above; type: cell-based; conditions: Homo sapiens, ALL (T-cell), 72 hours
Experimental: as §2

HOP-92 = experiment: Cancer cell line growth inhibition, CellTiter-Glo (Example 3); type: cell-based; conditions: Homo sapiens, NSCLC, 72 hours
Experimental: (§1) YT30 was tested for growth inhibition against 67 human cancer cell lines derived from diverse tissues including the National Cancer Institute human cancer cell lines (NCI-60). […] Cells in different wells were treated with various concentrations of YT30, YT86, YT88, or YT128. […] Cell viabilities were determined by the CellTiter-Glo Luminescence Cell Viability assay kit (Promega Corporation, Madison, Wis.) according to manufacturer's protocol.

U251 = experiment: as above; type: cell-based; conditions: Homo sapiens, U-251, CNS, 72 hours, read-out: IC50
Experimental: as §1

SK-MEL-2 = experiment: as above; type: cell-based; conditions: Homo sapiens, Melanoma, 72 hours
Experimental: as §1

HS 578T = experiment: as above; type: cell-based; conditions: Homo sapiens, Breast, 72 hours, read-out: IC50
Experimental: as §1

NCI-H522 = experiment: as above; type: cell-based; conditions: Homo sapiens, NSCLC, 72 hours
Experimental: as §1

LOX IMVI = experiment: as above; type: cell-based; conditions: Homo sapiens, Melanoma, 72 hours
Experimental: as §1

SF-539 = experiment: as above; type: cell-based; conditions: Homo sapiens, CNS, 72 hours, read-out: IC50
Experimental: as §1

HOP-62 = experiment: as above; type: cell-based; conditions: Homo sapiens, NSCLC, 72 hours
Experimental: as §1

SR = experiment: as above; type: cell-based; conditions: Homo sapiens, Leukemia, 72 hours, read-out: IC50
Experimental: as §1

RCH-HCV = experiment: as above; type: cell-based; conditions: Homo sapiens, Leukemia, 72 hours
Experimental: as §1

siHa = experiment: as above; type: cell-based; conditions: Homo sapiens, Cervical, 72 hours, read-out: IC50
Experimental: as §1

DU-145 = experiment: as above; type: cell-based; conditions: Homo sapiens, Prostate, 72 hours, read-out: IC50
Experimental: as §1

MOLT-4 = experiment: Leukemia cell growth inhibition, CellTiter-Glo (Example 1); type: cell-based; conditions: Homo sapiens; MOLT-4, ALL (T-cell); 72 hours
Experimental: as §2

K-562 = experiment: as above; type: cell-based; conditions: Homo sapiens, K562; K-562, CML; 72 hours
Experimental: as §2

[1] = YT30 50 mg/kg i.p. × 16 days, SCID mice, K562 tumor
[2] = YT30 90 mg/kg p.o. × 16 days, SCID mice, K562 tumor

`Nc1ccccc1NC(=O)CCCCCC(=O)Nc1cccc(Br)c1` [YT30] was tested. Which IC50 (SEM cells) did it give?
Its IC50 is 1.15 µM.

And the IC50 (K562R)?
The IC50 was 3.21 µM.

And the inhibition at 0.5 µM (Nalm-6)?
The inhibition at 0.5 µM was 2.5%.

What about the inhibition at 1 µM (Nalm-6) of the same compound?
Its inhibition at 1 µM is 8.4%.

What about the IC50 (MV4-11) of the same compound?
Its IC50 is 4.06 µM.

What about the Body weight change (K562 cells; [1]) of the same compound?
The Body weight change was −8.67%.

What about the “Tumor growth inhibition by size” value (K562 cells; [1]) of the same compound?
Its value is 44.07%.

And the “Tumor growth inhibition by weight” value (K562 cells; [1])?
Its value is 40.76%.

And the “Average body weight, End point” value (K562 cells; [1])?
Its value is 16.75 ± 1.57 g.

What about the “Average body weight, Initial” value (K562 cells; [1]) of the same compound?
Its value is 18.34 ± 0.73 g.

What about the Tumor size (K562 cells; [1]) of the same compound?
Its Tumor size is 1741.11 ± 1218.90 mm^3.

And the Tumor weight (K562 cells; [1])?
Its Tumor weight is 2.16 ± 1.86 g.

And the Body weight change (K562 cells; [2])?
The Body weight change was −5.30%.

What about the “Tumor growth inhibition by size” value (K562 cells; [2]) of the same compound?
The value was 41.77%.

And the “Tumor growth inhibition by weight” value (K562 cells; [2])?
Its value is 33.17%.

What about the “Average body weight, End point” value (K562 cells; [2]) of the same compound?
The value was 17.70 ± 2.03 g.

What about the “Average body weight, Initial” value (K562 cells; [2]) of the same compound?
Its value is 18.69 ± 1.36 g.

What about the Tumor size (K562 cells; [2]) of the same compound?
The Tumor size was 1812.71 ± 581.68 mm^3.

And the Tumor weight (K562 cells; [2])?
Its Tumor weight is 2.44 ± 0.92 g.

And the “Tumor growth inhibition by weight” value (K562 cells; intraperitoneal 50 mg/kg/day, 16 days of treatment)?
The value was 40.76%.

And the “Tumor growth inhibition by weight” value (K562 cells; oral gavage 90 mg/kg/day, 16 days of treatment)?
Its value is 33.17%.

And the IC50 (U266)?
The IC50 was 8.29 µM.

And the IC50 (BaF3 BCR-ABL T315I)?
The IC50 was 1.11 µM.

What about the IC50 (RPMI-8226) of the same compound?
The IC50 was 2 µM.

What about the IC50 (Jurkat) of the same compound?
The IC50 was 0.91 µM.

And the IC50 (HOP-92)?
The IC50 was 11 µM.

What about the IC50 (U251) of the same compound?
Its IC50 is 7.36 µM.

And the IC50 (SK-MEL-2)?
Its IC50 is 4.6 µM.

What about the IC50 (HS 578T) of the same compound?
The IC50 was 10.8 µM.

What about the IC50 (NCI-H522) of the same compound?
Its IC50 is 8.15 µM.

What about the IC50 (LOX IMVI) of the same compound?
The IC50 was 3.03 µM.

And the IC50 (SF-539)?
The IC50 was 10.8 µM.

And the IC50 (HOP-62)?
Its IC50 is 29.6 µM.

What about the IC50 (SR) of the same compound?
The IC50 was 6.89 µM.

What about the IC50 (RCH-HCV) of the same compound?
The IC50 was 0.79 µM.

What about the IC50 (siHa) of the same compound?
Its IC50 is 13.1 µM.

What about the IC50 (DU-145) of the same compound?
Its IC50 is 4.98 µM.

And the IC50 (MOLT-4)?
The IC50 was 1.13 µM.

And the IC50 (K-562)?
The IC50 was 1.82 µM.
